Experimental data published in patent publication US12281119B2, “Imidazo[2,1-f][1,2,4]triazin-4-amine derivatives as TLR7 agonist” (BEIGENE, LTD., priority 2019, dated 2025).

Tests used:
human TLR 8 protein = biological target: T1, human TLR 8 protein (Homo sapiens, UniProt Q9NR97); assay: TLR8 stimulation determined using HEK-Blue Detection; type: cell-based; details: HEK-Blue hTLR8 cells, 16 hr, relative to Resiquimod or Motolimod maximum
T1 construct: expressed in transfected cells; host or cells: HEK293 (HEK-Blue hTLR8)
T1 sequence (Q9NR97 27-1041): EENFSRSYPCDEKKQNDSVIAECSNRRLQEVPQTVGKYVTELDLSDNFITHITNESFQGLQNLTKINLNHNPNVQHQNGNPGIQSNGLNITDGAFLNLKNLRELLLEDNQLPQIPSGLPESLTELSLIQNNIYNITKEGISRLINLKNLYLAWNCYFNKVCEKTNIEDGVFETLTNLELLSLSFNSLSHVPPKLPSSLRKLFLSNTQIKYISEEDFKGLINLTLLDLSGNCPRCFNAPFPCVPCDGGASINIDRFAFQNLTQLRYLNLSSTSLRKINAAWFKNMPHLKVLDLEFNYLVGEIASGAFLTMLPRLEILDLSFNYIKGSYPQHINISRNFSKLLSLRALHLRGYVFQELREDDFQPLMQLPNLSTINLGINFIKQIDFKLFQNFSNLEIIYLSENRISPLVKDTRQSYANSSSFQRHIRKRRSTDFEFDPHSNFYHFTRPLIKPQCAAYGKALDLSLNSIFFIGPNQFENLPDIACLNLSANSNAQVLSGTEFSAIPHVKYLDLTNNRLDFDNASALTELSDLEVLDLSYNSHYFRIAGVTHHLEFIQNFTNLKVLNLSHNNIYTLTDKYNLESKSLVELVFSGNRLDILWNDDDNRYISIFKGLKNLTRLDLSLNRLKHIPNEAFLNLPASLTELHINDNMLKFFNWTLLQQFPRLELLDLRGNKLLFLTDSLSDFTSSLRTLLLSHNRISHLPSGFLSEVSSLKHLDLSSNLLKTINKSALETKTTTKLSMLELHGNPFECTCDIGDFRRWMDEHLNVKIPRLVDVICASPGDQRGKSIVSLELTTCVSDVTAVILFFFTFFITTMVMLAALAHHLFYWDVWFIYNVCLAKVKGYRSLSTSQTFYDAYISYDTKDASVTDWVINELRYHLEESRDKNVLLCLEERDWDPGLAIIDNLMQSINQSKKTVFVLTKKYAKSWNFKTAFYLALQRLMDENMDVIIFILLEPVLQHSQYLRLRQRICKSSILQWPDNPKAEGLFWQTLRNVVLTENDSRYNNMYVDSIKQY
Text: TLR8 Stimulation Determined Using HEK-Blue Detection
This assay was designed for studying the stimulation of human TLR 8 protein in HEK-Blue hTLR8 tool cell line by monitoring the activation of NF-1B. HEK-Blue hTLR8 cells were obtained by co-transfection of the hTLR8 gene and an optimized secreted embryonic alkaline phosphatase (SEAP) reporter gene into HEK293 cells. The SEAP reporter gene was placed under the control of the IFN-β minimal promoter fused to five NF-κB and AP-1-binding sites. Stimulation with a TLR 8 ligand activates NF-κB and AP-1 which induce the expression of SEAP. Levels of SEAP can be easily determined with HEK-Blue Detection, a cell culture medium that allows for real-time detection of SEAP. HEK-Blue Detection contains all the nutrients necessary for cell growth and a specific SEAP color substrate. The hydrolysis of the substrate by SEAP produces a purple/blue color that can be measured with a spectrophotometer.
When growing to 50-80% confluency, HEK-Blue hTLR7/8 cells were plated into 96-well plate (costar 3599) at a density of 40000 cells/well. Then compounds were added with serial dilutions over 10 points with a 1 nM-10 uM final concentration range in 0.1% DMSO/HEK-Blue Detection. The plates were then incubated for 16 hr at 37° C. in 5% CO2. The optical density at 620-655 nm was read on BMG PHERAstar FSX instrument. The EC50 for each compound was determined by calculating the percentages of the maximum activation identified with Resiquimod or Motolimod.

human TLR7 = biological target: T2, human TLR7 (Homo sapiens, UniProt Q9NYK1); assay: TLR7 stimulation determined using HEK-Blue Detection; type: cell-based; parameters: expressed in transfected cells; host or cells: HEK293 (HEK-Blue hTLR7); details: HEK-Blue hTLR7 cells, HEK-Blue Detection (A77-A124), 16 hr, relative to Resiquimod maximum
T2 sequence (Q9NYK1 27-1049): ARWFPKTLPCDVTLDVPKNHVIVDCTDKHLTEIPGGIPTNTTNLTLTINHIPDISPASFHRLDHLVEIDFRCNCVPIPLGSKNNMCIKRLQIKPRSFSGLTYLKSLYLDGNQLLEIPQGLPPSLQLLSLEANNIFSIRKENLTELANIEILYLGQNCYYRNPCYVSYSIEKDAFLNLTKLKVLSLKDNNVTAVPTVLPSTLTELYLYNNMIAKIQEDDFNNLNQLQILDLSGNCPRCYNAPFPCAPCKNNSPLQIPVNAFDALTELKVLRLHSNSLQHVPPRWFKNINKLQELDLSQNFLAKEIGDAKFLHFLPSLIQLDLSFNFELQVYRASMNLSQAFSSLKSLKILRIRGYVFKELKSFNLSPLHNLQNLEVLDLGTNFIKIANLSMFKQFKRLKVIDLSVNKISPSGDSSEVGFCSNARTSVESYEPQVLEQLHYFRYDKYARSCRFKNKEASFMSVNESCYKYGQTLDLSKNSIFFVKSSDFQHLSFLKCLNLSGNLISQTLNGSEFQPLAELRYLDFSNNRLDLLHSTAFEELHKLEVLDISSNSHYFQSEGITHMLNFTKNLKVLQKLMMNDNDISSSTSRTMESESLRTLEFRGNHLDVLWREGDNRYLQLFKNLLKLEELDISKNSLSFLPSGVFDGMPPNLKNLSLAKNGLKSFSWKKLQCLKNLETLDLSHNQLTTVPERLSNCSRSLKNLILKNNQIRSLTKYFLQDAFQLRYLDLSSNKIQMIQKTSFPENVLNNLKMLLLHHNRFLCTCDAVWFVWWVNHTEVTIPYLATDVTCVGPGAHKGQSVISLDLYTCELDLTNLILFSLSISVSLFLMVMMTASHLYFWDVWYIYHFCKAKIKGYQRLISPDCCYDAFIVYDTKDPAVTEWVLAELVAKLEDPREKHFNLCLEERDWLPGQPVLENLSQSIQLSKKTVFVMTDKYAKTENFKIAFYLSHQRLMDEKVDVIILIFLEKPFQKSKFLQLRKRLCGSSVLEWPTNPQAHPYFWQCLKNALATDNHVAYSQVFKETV
Text: TLR7 Stimulation Determined Using HEK-Blue Detection
This assay was designed for studying the stimulation of human TLR7 protein in HELK-Blue hTLR7 tool cell line by monitoring the activation of NF-κB. HEK-Blue hTLR7 cells were obtained by co-transfection of the hTLR7 gene and an optimized secreted embryonic alkaline phosphatase (SLAP) reporter gene into HEK293 cells. The SLAP reporter gene was placed under the control of the IFN-β minimal promoter fused to five NF-κB and AP-1-binding sites. Stimulation with a TLR7 ligand activates NF-κB and AP-1 which induce the expression of SLAP. Levels of SLAP can be easily determined with HEK-Blue Detection, a cell culture medium that allows for real-time detection of SLAP. HLK-Blue Detection contains all the nutrients necessary for cell growth and a specific SLAP color substrate. The hydrolysis of the substrate by SLAP produces a purple/blue color that can be measured with a spectrophotometer.
When growing to 50-80%0 confluency, HLK-Blue hTLR7 cells were plated into 96-well plate (costar 3599) at a density of 40000 cells/well. Then compounds were added with serial dilutions over 10 points with a 0.04 nM-10 μM final concentration range in 0.1% DMSO/BLK-Blue Detection. The plates were then incubated for 16 hr at 37° C. in […] and vortex for 30s before measurement. The optical density at 620-655 nm was read on BMG PHLRAstar FSX instrument. The EC50 for each compound was determined by calculating the percentages of the maximum activation identified with Resiquimod.

| EC50 (human TLR 8 protein) [nM] | EC50 (human TLR7) [nM] | SMILES |
| --- | --- | --- |
| 65 | 4 | CCCC(CCO)Oc1nc(N)c2ncc(Cc3ccc(CCCNC)cc3)n2n1 (single isomer, unassigned) [Compound A110, (R or S)-3-((4-amino-7-(4-(3-(methylamino)propyl)benzyl)imidazo[2,1-f][1,2,4]triazin-2-yl)oxy)hexan-1-ol] |
| 29 | 4.3 | CCCC(CCO)Oc1nc(N)c2ncc(Cc3ccc(OCCNC)nc3OC)n2n1 (centres unmarked) [Compound A96, 3-((4-amino-7-((2-methoxy-6-(2-(methylamino)ethoxy)pyridin-3-yl)methyl)imidazo[2,1-f][1,2,4]triazin-2-yl)oxy)hexan-1-ol] |
| 163 | 11 | CCCC(CCO)Oc1nc(N)c2ncc(Cc3ccc(OCCNC)c(OC)c3)n2n1 (centres unmarked) [Compound A98, 3-((4-amino-7-(3-methoxy-4-(2-(methylamino)ethoxy)benzyl)imidazo[2,1-f][1,2,4]triazin-2-yl)oxy)hexan-1-ol] |
| 6.8 | 1 | CCCC(CCO)Oc1nc(N)c2ncc(Cc3cc(F)c(OCCNC)c(F)c3)n2n1 (single isomer, unassigned) [Compound A114, (R or S)-3-((4-amino-7-(3,5-difluoro-4-(2-(methylamino)ethoxy)benzyl)imidazo[2,1-f][1,2,4]triazin-2-yl)oxy)hexan-1-ol] |
| > 10000 | 446 | CNCCOc1ccc(Cc2cnc3c(N)nc(OCC4CCOC4)nn23)cn1 (centres unmarked) [Compound A80, 7-((6-(2-(methylamino)ethoxy)pyridin-3-yl)methyl)-2-((tetrahydrofuran-3-yl)methoxy)imidazo[2,1-f][1,2,4]triazin-4-amine] |
| 1140 | 23 | CCCC(C)Oc1nc(N)c2ncc(Cc3cnc(OCCNC)c(C)c3)n2n1 (centres unmarked) [Compound A78, 7-((5-methyl-6-(2-(methylamino)ethoxy)pyridin-3-yl)methyl)-2-(pentan-2-yloxy)imidazo[2,1-f][1,2,4]triazin-4-amine] |
| 19 | 0.63 | CCCC(CCO)Oc1nc(N)c2ncc(Cc3ccc(OCCNC)cc3OCC)n2n1 (single isomer, unassigned) [Compound A121, (R or S)-3-((4-amino-7-(2-ethoxy-4-(2-(methylamino)ethoxy)benzyl)imidazo[2,1-f][1,2,4]triazin-2-yl)oxy)hexan-1-ol] |
| 24 | 10 | CCCC(CCO)Oc1nc(N)c2ncc(Cc3cccc(OCCNC)c3)n2n1 (single isomer, unassigned) [Compound A104, (R or S)-3-((4-amino-7-(3-(2-(methylamino)ethoxy)benzyl)imidazo[2,1-f][1,2,4]triazin-2-yl)oxy)hexan-1-ol] |
| 51 | 37.8 | CCCC(CCO)Oc1nc(N)c2ncc(Cc3cc(OC)cc(OCCNC)c3)n2n1 (single isomer, unassigned) [Compound A116, (R or S)-3-((4-amino-7-(3-methoxy-5-(2-(methylamino)ethoxy)benzyl)imidazo[2,1-f][1,2,4]triazin-2-yl)oxy)hexan-1-ol] |
| 113 | 6 | CCCC(CCO)Oc1nc(N)c2ncc(Cc3ccc(OCC(C)NC)nc3)n2n1 (single isomer, unassigned) [Compound A122, (R or S)-3-((4-amino-7-((6-(2-(methylamino)propoxy)pyridin-3-yl)methyl)imidazo[2,1-f][1,2,4]triazin-2-yl)oxy)hexan-1-ol] |
| 15 | 0.7 | CCCC(CCO)Oc1nc(N)c2ncc(Cc3c(F)cc(OCCNC)cc3F)n2n1 (single isomer, unassigned) [Compound A123, (R or S)-3-((4-amino-7-(2,6-difluoro-4-(2-(methylamino)ethoxy)benzyl)imidazo[2,1-f][1,2,4]triazin-2-yl)oxy)hexan-1-ol] |
| 98 | 24 | CCCC(CCO)Oc1nc(N)c2ncc(Cc3cc(OCCNC)ccc3OC)n2n1 (single isomer, unassigned) [Compound A113, (R or S)-3-((4-amino-7-(2-methoxy-5-(2-(methylamino)ethoxy)benzyl)imidazo[2,1-f][1,2,4]triazin-2-yl)oxy)hexan-1-ol] |
| 21 | 0.8 | CCCC(CCO)Oc1nc(N)c2ncc(Cc3ccc(OCCNC)cc3Cl)n2n1 (single isomer, unassigned) [Compound A108, (R or S)-3-((4-amino-7-(2-chloro-4-(2-(methylamino)ethoxy)benzyl)imidazo[2,1-f][1,2,4]triazin-2-yl)oxy)hexan-1-ol] |
